Reference: patent US20120015907A1, “Furopyridine compounds and uses thereof” (NOVARTIS AG, priority 2010, published 2012)
Read-outs that look alike come from different tables or passages of the source.

Target: T1, HCV polymerase (Hepatitis C virus genotype 1b, UniProt Q9WMX2)
T1 construct: (His)6 (C)
Experiment: biochemical
Conditions: polymerase assay of Biological Example 1
Text: A number of assays have been published to assess these activities. A general method that assesses the gross increase of HCV virus in culture was disclosed in U.S. Pat. No. 5,738,985 to Miles et al. In vitro assays have been reported in Ferrari et al. Jnl. of Vir., 73:1649-1654, 1999; Ishii et al., Hepatology, 29:1227-1235, 1999; Lohmann et al., Jnl of Bio. Chem., 274:10807-10815, 1999; and Yamashita et al., Jnl. of Bio. Chem., 273:15479-15486, 1998.
WO 97/12033, filed on Sep. 27, 1996, by Emory University, listing C. Hagedorn and A. Reinoldus as inventors, which claims priority to U.S. Provisional Patent Application Ser. No. 60/004,383, filed on September 1995, described an HCV polymerase assay that can be used to evaluate the activity of the of the compounds described herein. Another HCV polymerase assay has been reported by Bartholomeusz, et al., Hepatitis C Virus (HCV) RNA polymerase assay using cloned HCV non-structural proteins; Antiviral Therapy 1996:1(Supp 4) 18-24.

CCc1cc2c(C(=O)NC)c(-c3ccc(F)cc3)oc2nc1N(CCN1CCSCC1)S(C)(=O)=O [Example 22.3, 5-ethyl-2-(4-fluorophenyl)-N-methyl-6-(N-(2-thiomorpholinoethyl)methylsulfonamido)furo[2,3-b]pyridine-3-carboxamide]
IC50 (read-out: NS5B polymerase IC50): 0.089 µM

CNC(=O)c1c(-c2ccc(Oc3ccccc3F)cc2)oc2nc(N(CCCCC(=O)O)S(C)(=O)=O)c(C3CC3)cc12 [Example 27.3, 5-(N-(5-cyclopropyl-2-(4-(2-fluorophenoxy)phenyl)-3-(methylcarbamoyl)furo[2,3-b]pyridin-6-yl)methylsulfonamido) pentanoic acid]
IC50 (read-out: NS5B polymerase IC50): 0.023 µM

CNC(=O)c1c(-c2ccc(C)cc2C)oc2nc(N(C)S(C)(=O)=O)c(C3CC3)cc12 [Example 2.99, 5-cyclopropyl-2-(2,4-dimethylphenyl)-N-methyl-6-(N-methylmethylsulfonamido)furo[2,3-b]pyridine-3-carboxamide]
IC50 (read-out: NS5B polymerase IC50): 0.071 µM

CCc1cc2c(C(=O)NC)c(-c3ccc(F)cc3)oc2nc1N(CC[C@H]1COc2c(OC)cccc21)S(C)(=O)=O [Example 22.9, (R)-5-ethyl-2-(4-fluorophenyl)-6-(N-(2-(7-methoxy-2,3-dihydrobenzofuran-3-yl)ethyl)methylsulfonamido)-N-methylfuro[2,3-b]pyridine-3-carboxamide]
IC50 (read-out: NS5B polymerase IC50): 0.023 µM

CNC(=O)c1c(-c2ccc(C)cc2)oc2nc(N(CCCC3CCCC3C(=O)O)S(C)(=O)=O)c(C3CC3)cc12 (stereo not shown) [Example 29.4, 2-(3-(N-(5-cyclopropyl-3-(methylcarbamoyl)-2-p-tolylfuro[2,3-b]pyridin-6-yl)methylsulfonamido)propyl) cyclopentanecarboxylic acid]
IC50 (read-out: NS5B polymerase IC50): 0.003 µM

CCc1ccc(-c2oc3nc(N(CCCC(C)C(=O)O)S(C)(=O)=O)c(C4CC4)cc3c2C(=O)NC)cc1 (stereo not shown) [Example 29.9995, 5-(N-(5-cyclopropyl-2-(4-ethylphenyl)-3-(methylcarbamoyl)furo[2,3-b]pyridin-6-yl)methylsulfonamido)-2-methylpentanoic acid]
IC50 (read-out: NS5B polymerase IC50): 0.002 µM

CCc1cc2c(C(=O)NC)c(-c3ccc(F)cc3)oc2nc1N(CCN(C)S(=O)(=O)c1ccccc1)S(C)(=O)=O [Example 22.995, 5-ethyl-2-(4-fluorophenyl)-N-methyl-6-(N-(2-(N-methylphenylsulfonamido)ethyl)methylsulfonamido)furo[2,3-b]pyridine-3-carboxamide]
IC50 (read-out: NS5B polymerase IC50): 0.024 µM

CCc1ccc(-c2oc3nc(N(CCCCCO)S(C)(=O)=O)c(I)cc3c2C(=O)NC)cc1 [Example 23.9993, 2-(4-ethylphenyl)-6-(N-(5-hydroxypentyl)methylsulfonamido)-5-iodo-N-methylfuro[2,3-b]pyridine-3-carboxamide]
IC50 (read-out: NS5B polymerase IC50): 0.026 µM

C=CCCCN(c1nc2oc(-c3ccc(F)cc3)c(C(=O)NC)c2cc1I)S(C)(=O)=O [Example 18.5, 2-(4-fluorophenyl)-5-iodo-N-methyl-6-(N-(pent-4-enyl)methylsulfonamido)furo[2,3-b]pyridine-3-carboxamide]
IC50 (read-out: NS5B polymerase IC50): 0.449 µM

CNC(=O)c1c(-c2ccc(C)cc2)oc2nc(N(CCCC(C)(CCOC)C(=O)O)S(C)(=O)=O)c(C3CC3)cc12 (stereo not shown) [Example 42.1, 5-(N-(5-cyclopropyl-3-(methylcarbamoyl)-2-p-tolylfuro[2,3-b]pyridin-6-yl)methylsulfonamido)-2-(2-methoxyethyl)-2-methylpentanoic acid]
IC50 (read-out: NS5B polymerase IC50): 0.003 µM

CCOC(=O)CCCCc1cc2c(C(=O)NC)c(-c3ccc(F)cc3)oc2nc1N(C)S(C)(=O)=O [Example 3, Ethyl 5-(2-(4-fluorophenyl)-3-(methylcarbamoyl)-6-(N-methylmethylsulfonamido)furo[2,3-b]pyridin-5-yl)pentanoate]
IC50 (read-out: NS5B polymerase IC50): 0.034 µM

CCc1cc2c(C(=O)NC)c(-c3ccc(F)cc3)oc2nc1N(CCCC#N)S(C)(=O)=O [Example 21.991, 6-(N-(3-cyanopropyl)methylsulfonamido)-5-ethyl-2-(4-fluorophenyl)-N-methylfuro[2,3-b]pyridine-3-carboxamide]
IC50 (read-out: NS5B polymerase IC50): 0.074 µM

CCOP(C)(=O)CCCCN(c1nc2oc(-c3ccc(C)cc3)c(C(=O)NC)c2cc1I)S(C)(=O)=O (stereo not shown) [Example 23.9995, ethyl 4-(N-(5-iodo-3-(methylcarbamoyl)-2-p-tolylfuro[2,3-b]pyridin-6-yl)methylsulfonamido)butyl (methyl)phosphinate]
IC50 (NS5B polymerase IC50 μM): 0.017 µM

CNC(=O)c1c(-c2ccc(C)c(C)c2)oc2nc(N(CCCCC(=O)O)S(C)(=O)=O)c(C3CC3)cc12 [Example 29.999998, 5-(N-(5-cyclopropyl-2-(3,4-dimethylphenyl)-3-(methylcarbamoyl)furo[2,3-b]pyridin-6-yl)methylsulfonamido) pentanoic acid]
IC50 (read-out: NS5B polymerase IC50): 0.004 µM

CNC(=O)c1c(-c2ccc(C)cc2)oc2nc(N(CCOCCC3(C(=O)O)CCOCC3)S(C)(=O)=O)c(C3CC3)cc12 [Example 29.99995, 4-(2-(2-(N-(5-cyclopropyl-3-(methylcarbamoyl)-2-p-tolylfuro[2,3-b]pyridin-6-yl)methylsulfonamido)ethoxy)ethyl)tetrahydro-2H-pyran-4-carboxylic acid]
IC50 (read-out: NS5B polymerase IC50): 0.032 µM

CNC(=O)c1c(-c2ccc(F)cc2)oc2nc(N(C)S(C)(=O)=O)c(C(C)O)cc12 (stereo not shown) [Example 11, 2-(4-fluorophenyl)-5-(1-hydroxyethyl)-N-methyl-6-(N-methylmethylsulfonamido)furo[2,3-b]pyridine-3-carboxamide]
IC50 (read-out: NS5B polymerase IC50): 0.825 µM

CCc1cc2c(C(=O)NC)c(-c3ccc(F)cc3)oc2nc1N(CCc1scnc1C)S(C)(=O)=O [Example 22, 5-ethyl-2-(4-fluorophenyl)-N-methyl-6-(N-(2-(4-methylthiazol-5-yl)ethyl)methylsulfonamido)furo[2,3-b]pyridine-3-carboxamide]
IC50 (read-out: NS5B polymerase IC50): 0.169 µM

CNC(=O)c1c(-c2ccc(F)cc2)oc2nc(N(CCCC(C)O)S(C)(=O)=O)c(I)cc12 (stereo not shown) [Example 18.998, 2-(4-fluorophenyl)-6-(N-(4-hydroxypentyl)methylsulfonamido)-5-iodo-N-methylfuro[2,3-b]pyridine-3-carboxamide]
IC50 (read-out: NS5B polymerase IC50): 0.039 µM

CCc1cc2c(C(=O)NC)c(-c3ccc(F)cc3)oc2nc1N(C[C@H](C)Cc1ccc(OC)nc1)S(C)(=O)=O [Example 21.7, (R)-5-ethyl-2-(4-fluorophenyl)-6-(N-(3-(6-methoxypyridin-3-yl)-2-methylpropyl)methylsulfonamido)-N-methylfuro[2,3-b]pyridine-3-carboxamide]
IC50 (read-out: NS5B polymerase IC50): 0.531 µM

CCc1cc2c(C(=O)NC)c(-c3ccc(F)cc3)oc2nc1N(CCCCOc1ccccc1C#N)S(C)(=O)=O [Example 21.96, 6-(N-(4-(2-cyanophenoxy)butyl)methylsulfonamido)-5-ethyl-2-(4-fluorophenyl)-N-methylfuro[2,3-b]pyridine-3-carboxamide]
IC50 (read-out: NS5B polymerase IC50): 0.072 µM

CCc1cc2c(C(=O)NC)c(-c3ccc(F)cc3)oc2nc1N(C(C)C)S(C)(=O)=O [Example 22.993, 5-ethyl-2-(4-fluorophenyl)-6-(N-isopropylmethylsulfonamido)-N-methylfuro[2,3-b]pyridine-3-carboxamide]
IC50 (read-out: NS5B polymerase IC50): 1.06 µM

CNC(=O)c1c(-c2ccc(C)cc2)oc2nc(N(CCC[C@H](C)C(=O)N[C@@H](CO)Cc3ccccc3)S(C)(=O)=O)c(C3CC3)cc12 [Example 47.2]
IC50 (read-out: NS5B polymerase IC50): 0.058 µM

CCc1ccc(-c2oc3nc(N(CCCC[C@@H](COC)C(=O)O)S(C)(=O)=O)c(C4CC4)cc3c2C(=O)NC)cc1 [Example 47.4, (S)-6-(N-(5-Cyclopropyl-2-(4-ethylphenyl)-3-(methylcarbamoyl)furo[2,3-b]pyridin-6-yl)methylsulfonamido)-2-(methoxymethyl)hexanoic acid]
IC50 (read-out: NS5B polymerase IC50): 0.003 µM

CNC(=O)c1c(-c2ccc(F)cc2)oc2nc(N(CC3CCCN(C(=O)OC(C)(C)C)C3)S(C)(=O)=O)c(I)cc12 (stereo not shown) [Example 18.92, tert-butyl 3-((N-(2-(4-fluorophenyl)-5-iodo-3-(methylcarbamoyl)furo[2,3-b]pyridin-6-yl)methylsulfonamido)methyl)piperidine-1-carboxylate]
IC50 (read-out: NS5B polymerase IC50): 1.02 µM

CNC(=O)c1c(-c2ccc(F)cc2)oc2nc3c(cc12)[C@H](C)C[C@H](O)CN3S(C)(=O)=O (single isomer, unassigned) [Example 33]
IC50 (read-out: NS5B polymerase IC50): 0.17 µM

CNC(=O)c1c(-c2ccc(F)cc2)oc2nc(N(C)S(C)(=O)=O)c(CCCC(O)CO)cc12 (stereo not shown) [Example 4.92, 5-(4,5-dihydroxypentyl)-2-(4-fluorophenyl)-N-methyl-6-(N-methylmethylsulfonamido)furo[2,3-b]pyridine-3-carboxamide]
IC50 (read-out: NS5B polymerase IC50): 0.223 µM

CNC(=O)c1c(-c2ccc(C)cc2)oc2nc(N(CCCNS(=O)(=O)C(F)(F)F)S(C)(=O)=O)c(C3CC3)cc12 [Example 23.999992, 5-cyclopropyl-N-methyl-2-p-tolyl-6-(N-(3-(trifluoromethylsulfonamido)propyl)methylsulfonamido) furo[2,3-b]pyridine-3-carboxamide]
IC50 (read-out: NS5B polymerase IC50): 0.002 µM

CNC(=O)c1c(-c2ccc(C)cc2)oc2nc(N(CCC[C@@H](C)C(=O)N[C@@H](C(=O)OC)c3ccccc3)S(C)(=O)=O)c(C3CC3)cc12 [Example 29.99998, (R)-methyl 2-((R)-5-(N-(5-cyclopropyl-3-(methylcarbamoyl)-2-p-tolylfuro[2,3-b]pyridin-6-yl)methylsulfonamido)-2-methylpentanamido)-2-phenylacetate]
IC50 (read-out: NS5B polymerase IC50): 0.002 µM
